≈ marks a conversion by molar mass, not a printed value.
Columns and labels:
Enterococcus faecium [1] = assay: Minimum inhibitory concentration against vancomycin-sensitive Enterococcus faecium in the presence of 30% bovine serum(n=1); type: functional
Enterococcus faecium [2] = assay: Minimum inhibitory concentration against vancomycin-A Enterococcus faecium in the presence of 30% bovine serum (n=1); type: functional
Enterococcus faecalis [3] = assay: Minimum inhibitory concentration against vancomycin-A Enterococcus faecalis in the presence of 30% bovine serum(n=4) (range = 0.125-16mg/L); type: functional
Enterococcus faecalis [4] = assay: Minimum inhibitory concentration against vancomycin-sensitive Enterococcus faecalis in the presence of 30% bovine serum(n=3)(range = 8-4); type: functional
[5] = tested on: Staphylococcus epidermidis; assay: Minimum inhibitory concentration against methicillin-sensitive Staphylococcus epidermidis in the presence of 30% bovine serum; type: functional
[6] = tested on: Staphylococcus haemolyticus; assay: Minimum inhibitory concentration against Staphylococcus haemolyticus in the presence of 30% bovine serum; type: functional
Staphylococcus aureus [7] = assay: Minimum inhibitory concentration against methicillin-sensitive Staphylococcus aureus
Enterococcus faecalis [8] = assay: Minimum inhibitory concentration against vancomycin-sensitive Enterococcus faecalis in the presence of 30% bovine serum (n=3); type: functional
[9] = tested on: Staphylococcus epidermidis; assay: Minimum inhibitory concentration against methicillin-resistant Staphylococcus epidermidis in the presence of 30% bovine serum; type: functional
Enterococcus faecalis [10] = assay: Minimum inhibitory concentration against vancomycin-A Enterococcus faecalis in the presence of 30% bovine serum(n=4) (range = 1-16mg/L); type: functional
Staphylococcus aureus [11] = assay: Minimum inhibitory concentration against methicillin-resistant Staphylococcus aureus
Enterococcus faecium [12] = assay: Minimum inhibitory concentration against vancomycin-A Enterococcus faecium in the presence of 30% bovine serum (n=1) (range = 2-32mg/l); type: functional
Enterococcus faecium [13] = assay: Minimum inhibitory concentration against vancomycin-A Enterococcus faecium in the presence of 30% bovine serum (n=1) (range = 0.5>128mg/l); type: functional
Enterococcus faecalis [14] = assay: Minimum inhibitory concentration against vancomycin-A Enterococcus faecalis in the presence of 30% bovine serum (n=4) (range = 2-4 mg/L); type: functional
Enterococcus faecalis [15] = assay: Minimum inhibitory concentration against vancomycin-sensitive Enterococcus faecalis in the presence of 30% bovine serum(n=3)(range = 0.25-1mg/l); type: functional
Enterococcus faecalis [16] = assay: Minimum inhibitory concentration against vancomycin-A Enterococcus faecalis in the presence of 30% bovine serum(n=4) (128 >128mg/L); type: functional
Enterococcus faecium [17] = assay: Minimum inhibitory concentration against vancomycin-A Enterococcus faecium in the presence of 30% bovine serum (n=1) (range = 64>128mg/L); type: functional
Enterococcus faecalis [18] = assay: Minimum inhibitory concentration against vancomycin-sensitive Enterococcus faecalis in the presence of 30% bovine serum(n=3)(range = 1-2mg/l); type: functional
Enterococcus faecium [19] = assay: Minimum inhibitory concentration against vancomycin-A Enterococcus faecium in the presence of 30% bovine serum (n=1) (range = 816 mg/L); type: functional
Enterococcus faecalis [20] = assay: Minimum inhibitory concentration against vancomycin-A Enterococcus faecalis in the presence of 30% bovine serum (n=4) (Range = 0.125 - 16 mg/L); type: functional

Compound | MIC (Enterococcus faecium [1]) [µg/mL] | MIC (Enterococcus faecium [2]) [µg/mL] | MIC (Enterococcus faecalis [3]) [µg/mL] | MIC (Enterococcus faecalis [4]) [µg/mL] | MIC [5] [µg/mL] | MIC [6] [µg/mL] | MIC (Staphylococcus aureus [7]) [µg/mL] | MIC (Enterococcus faecalis [8]) [µg/mL] | MIC [9] [µg/mL] | MIC (Enterococcus faecalis [10]) [µg/mL] | MIC (Staphylococcus aureus [11]) [µg/mL] | MIC (Enterococcus faecium [12]) [µg/mL] | MIC (Enterococcus faecium [13]) [µg/mL] | MIC (Enterococcus faecalis [14]) [µg/mL] | MIC (Enterococcus faecalis [15]) [µg/mL] | MIC (Enterococcus faecalis [16]) [µg/mL] | MIC (Enterococcus faecium [17]) [µg/mL] | MIC (Enterococcus faecalis [18]) [µg/mL] | MIC (Enterococcus faecium [19]) [µg/mL] | MIC (Enterococcus faecalis [20]) [µg/mL]
CCCCC(CC)Oc1ccc(CNC2[C@H](Oc3c4cc5cc3Oc3ccc(cc3Cl)[C@@H](O)C3NC(=O)[C@H](NC(=O)[C@@H]5NC(=O)[C@H]5NC(=O)[C@@H](Cc6ccc(cc6)O4)NC(=O)[C@H](NC)c4ccc(O)c(c4)Oc4cc(O)c(Cl)c5c4)c4ccc(O)c(c4)-c4c(O[C@H]5O[C@H](CO)[C@@H](O)[C@H](O)[C@@H]5O)cc(O)cc4[C@@H](C(=O)NCCCN(C)C)NC3=O)OC(C(=O)NCCCN(C)C)C(O)[C@@H]2O)cc1 (stereo not given in full) | < 0.125 | 16 | < 16 | < 0.125 | < 0.125 | 4 | < 0.125 | – | – | – | – | – | – | – | – | – | – | – | – | –
CN(C)CCCNC(=O)C1O[C@@H](Oc2c3cc4cc2Oc2ccc(cc2Cl)[C@@H](O)C2NC(=O)[C@H](NC(=O)[C@@H]4NC(=O)[C@H]4NC(=O)[C@@H](Cc5ccc(cc5)O3)NC(=O)[C@H](N(C)Cc3ccc(-c5ccccc5)cc3)c3ccc(O)c(c3)Oc3cc(O)c(Cl)c4c3)c3ccc(O)c(c3)-c3c(O[C@H]4O[C@H](CO)[C@@H](O)[C@H](O)[C@@H]4O)cc(O)cc3[C@@H](C(=O)NCCCN(C)C)NC2=O)C(NCc2ccc(-c3ccccc3)cc2)[C@@H](O)C1O (stereo not given in full) | 0.5 | – | – | – | 0.25 | 2 | 1 (≈ 0.488 µM) | 0.25 | 1 | 4 | 1 (≈ 0.488 µM) | 32 | – | – | – | – | – | – | – | –
CCCCc1ccc(CNC2[C@H](Oc3c4cc5cc3Oc3ccc(cc3Cl)[C@@H](O)C3NC(=O)[C@H](NC(=O)[C@@H]5NC(=O)[C@H]5NC(=O)[C@@H](Cc6ccc(cc6)O4)NC(=O)[C@H](N(C)Cc4ccc(CCCC)cc4)c4ccc(O)c(c4)Oc4cc(O)c(Cl)c5c4)c4ccc(O)c(c4)-c4c(O[C@H]5O[C@H](CO)[C@@H](O)[C@H](O)[C@@H]5O)cc(O)cc4[C@@H](C(=O)O)NC3=O)OC(C(=O)O)C(O)[C@@H]2O)cc1 (stereo not given in full) | 1 | – | – | – | 4 | 8 | – | – | 8 | – | 2 (≈ 1.09 µM) | – | > 128 | 4 | 1 | – | – | – | – | –
CCCCOc1ccc(CN(C)[C@H]2C(=O)N[C@@H]3Cc4ccc(cc4)Oc4cc5cc(c4O[C@@H]4OC(C(=O)O)C(O)[C@H](O)C4N)Oc4ccc(cc4Cl)[C@@H](O)C4NC(=O)[C@H](NC(=O)[C@@H]5NC(=O)[C@@H](NC3=O)c3cc(cc(O)c3Cl)Oc3cc2ccc3O)c2ccc(O)c(c2)-c2c(O[C@H]3O[C@H](CO)[C@@H](O)[C@H](O)[C@@H]3O)cc(O)cc2[C@@H](C(=O)O)NC4=O)cc1 (stereo not given in full) | 2 | – | – | – | 32 | > 128 | 4 (≈ 2.34 µM) | – | 128 | – | 2 (≈ 1.17 µM) | – | – | – | – | 128 | > 128 | 2 | – | –
CCCCCCOc1ccc(CNC2[C@H](Oc3c4cc5cc3Oc3ccc(cc3Cl)[C@@H](O)C3NC(=O)[C@H](NC(=O)[C@@H]5NC(=O)[C@H]5NC(=O)[C@@H](Cc6ccc(cc6)O4)NC(=O)[C@H](NC)c4ccc(O)c(c4)Oc4cc(O)c(Cl)c5c4)c4ccc(O)c(c4)-c4c(O[C@H]5O[C@H](CO)[C@@H](O)[C@H](O)[C@@H]5O)cc(O)cc4[C@@H](C(=O)NCCCN(C)C)NC3=O)OC(C(=O)NCCCN(C)C)C(O)[C@@H]2O)cc1 (stereo not given in full) | < 0.125 | – | – | – | < 0.125 | 16 | > 0.125 | < 0.125 | – | – | – | – | – | – | – | – | – | – | > 16 | 16

— ChEMBL document CHEMBL1142788, “Synthesis and antibacterial activity of alkyl derivatives of the glycopeptide antibiotic A40926 and their amides” (2005)
